These results are taken from patent publication US12594276B2, “Inhibitors of human immunodeficiency virus replication” (ViiV Healthcare UK (No.5) Limited, priority 2024, dated 2026).

Data set [1] relates to recombinant NL4-3 virus (nef section replaced with Renilla luciferase gene) in MT-2 cells. The experiment in a line: HIV cell culture assay (antiviral activity, luciferase readout). The data set is classed as cell-based. The following applies: MT-2 cells infected for 4-5 days with recombinant NL4-3 Renilla luciferase virus. A digest of the protocol: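 293T transfection → virus harvest at 2-3 d → titer in MT-2 by luciferase. MT-2 + virus + serial cpd dilutions, 4-5 d. Live-cell luciferase read; EC50 by median effect fit.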

For a further data set, the system named is uninfected MT2 cells. Briefly: Compound cytotoxicity, XTT-based colorimetric assay. The data set is classed as cell-based. The conditions noted are these: uninfected MT2 cells, day 4, XTT. A digest of the protocol:
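Uninfected MT2 cells were treated with compound under the same protocol as the antiviral assay. Viability was read on day 4 with an XTT colorimetric assay, from which CC50 values were derived.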
(In general: Formazan colour is commonly taken as a measure of viable cells.)

Structures are written as SMILES. Some results are limits rather than exact numbers.

Take `Cc1cc(C2(F)CCC(F)(F)CC2)nc2nc([C@H](Cc3cc(F)cc(F)c3)NC(=O)Cn3nc(C(F)F)c4c3C(F)(F)[C@@H]3C[C@H]43)n(-c3ccc(Cl)c4c(NS(C)(=O)=O)nn(C[C@@H](C)N5C[C@H](F)C[C@H](F)C5)c34)c(=O)c12` (atropisomer, axis not shown; (P)) [Example 703, N-[(1S)-1-[(3P)-3-{4-chloro-1-[(2S)-2-[(3R,5S)-3,5-difluoropiperidin-1-yl]propyl]-3-methanesulfonamido-1H-indazol-7-yl}-5-methyl-4-oxo-7-(1,4,4-trifluorocyclohexyl)-3H,4H-pyrido[2,3-d]pyrimidin-2-yl]-2-(3,5-difluorophenyl)ethyl]-2-[(2S,4R)-9-(difluoromethyl)-5,5-difluoro-7,8-diazatricyclo[4.3.0.0^2,^4]nona-1(6),8-dien-7-yl]acetamide]: the EC50 (usually the concentration that produces a half-maximal response) in data set [1] amounted to 0.017 nM. In addition, the half-maximal cytotoxic concentration (CC50) – broadly, the concentration that lowers cell viability or growth by half – in the data set on uninfected MT2 cells was > 20 nM.
